Test results reported in patent US20260240842A1, “METHODS TO PREVENT THERAPY RESISTANCE IN MELANOMA VIA BLOCKING GENOMIC INSTABILITY” (THE REGENTS OF THE UNIVERSITY OF CALIFORNIA, priority 2022, published 2026).

System: KRAS^G12C PDAC cell lines (MIAPaCa-2, XWR200)
Assay: Long-term clonogenic growth, acquired MAPKi resistance in PDAC cell lines
Assay type: cell-based, human
Conditions: combined with MAPKi (type II RAFi+MEKi or KRAS G12Ci+MEKi); FIG. 6A to 6F
Excerpt: FIGS. 6A-6J. DNA-PKi co-treatment prevents acquired MAPKi-resistance in KRAS^G12 human pancreatic ductal adenocarcinoma and non-small cell lung carcinoma cell lines. FIGS. 6A to 6J: Long-term clonogenic growth of PDAC (MIAPaCa-2, XWR200) (6A to 6F) or NSCLC (H358, H2122) (6G to 6J) cell lines showing acquired-resistant colonies to MEKi alone, type II RAFi+MEKi, or KRAS G12Ci+MEKi and their suppression by indicated co-treatments with DNA-PKi (NU7026) and/or PARPi (ABT888) at indicated concentrations. Top, representative cultures; bottom, quantifications over n=4 fields (mean±SD). Data representative of 2 independent repeats. Seeding densities (cells/well in 6-well dishes) and culture durations: MIAPaCa-2 (10,000; 30 days for 6A-6C), XWR200 (150,000; 23 days for 6D, 30 days for 6E, 26 days for 6F), H358 (40,000; 14 days for 6G, 29 days for 6H, 26 days for 6I), H2122 (20,000, 22 days for 6J). […]
For clonogenic assay, cells were plated at indicated cell densities in six-well plates and treated with inhibitor(s) the next day. […] Formazan was then dissolved in 100 μL DMSO, and the absorbance values were measured using an ELISA reader (SpectraMax Plus 384) at the wavelength of 570 nm, blanked with DMSO solution. […]

SMILES	suppression of acquired MAPKi resistance, number of PDAC cell lines
C[C@]1(c2nc3c(C(N)=O)cccc3[nH]2)CCCN1 [ABT888, veliparib]	generally ineffective
O=c1cc(N2CCOCC2)oc2c1ccc1ccccc12 [NU7026]	two of two
